System: Stratum corneum
Assay: AFM elastic modulus of Stratum corneum in skin explants (keratolytic effect)
Design: species or system human
Settings: three topical applications, succinic acid 0.6 wt %, lactic acid 0.36 wt %, alone or combined (ratio 1.67)
Description: Keratolytic effect was assessed by observing the skin biomechanical properties modulation (skin stiffness modulation) induced by the tested agents using Atomic Force Microscopy (AFM) in skin explants. • 1 explant by donor and treatment • 3 distinct areas were measured by explant • A minimum of 12 measures by aera
Skin punchs of 1.2 cm were made from breast skin of women between 35 and 43 years old. […] First and second application during 1 hour, and the third-one during 3 hours. […] Mechanical properties of skin explants cryosections have been assessed, at Stratum corneum and epidermis areas, by AFM measurements.
AFM indentation experiments were carried out with a Resolve Bioscope (Bruker Nano Surface, Santa Barbara, CA) that was mounted on an inverted optical DM18 (Leica) and a top view Bruker. All measurements of skin stiffness were performed using cantilevers with conical tips. The cantilever moved with the relief of the skin surface. This deformation was quantified by the deflection of the laser beam who are correlated with biomechanical parameters of skin surface samples. Quantitative measure of elastic modulus was used to assess Stratum corneum or epidermis cell-cell junctions stiffness after treatment.

Structure (SMILES) | inhibition of elastic modulus of Stratum corneum (stiffness reduction) compared to untreated control
CC(O)C(=O)O (centres unmarked) [lactic acid] | did not show any significant effect
O=C(O)CCC(=O)O [succinic acid] | did not show any significant effect
